Measurements from US8168651B2, “Protein kinase modulators” (Cylene Pharmaceuticals, Inc., priority 2008, dated 2012).

What was measured:
Assay in all cases: Standardized radiometric kinase assays, percentage of activity at 0.5 μM;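 note: Read-out is ³³P-labelled substrate protein phosphorylated by each kinase, captured on filters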
[1] = target: each individual kinase of the panel (Homo sapiens, UniProt O00418)
[2] = target: each individual kinase of the panel (Homo sapiens, UniProt O15111)
[3] = target: each individual kinase of the panel (Homo sapiens, UniProt P00533)
[4] = target: each individual kinase of the panel (Homo sapiens, UniProt P06493)
[5] = target: each individual kinase of the panel (Homo sapiens, UniProt P07947)
Chain of each individual kinase of the panel (Homo sapiens, UniProt P07947) (P07947 2-543 limits assumed): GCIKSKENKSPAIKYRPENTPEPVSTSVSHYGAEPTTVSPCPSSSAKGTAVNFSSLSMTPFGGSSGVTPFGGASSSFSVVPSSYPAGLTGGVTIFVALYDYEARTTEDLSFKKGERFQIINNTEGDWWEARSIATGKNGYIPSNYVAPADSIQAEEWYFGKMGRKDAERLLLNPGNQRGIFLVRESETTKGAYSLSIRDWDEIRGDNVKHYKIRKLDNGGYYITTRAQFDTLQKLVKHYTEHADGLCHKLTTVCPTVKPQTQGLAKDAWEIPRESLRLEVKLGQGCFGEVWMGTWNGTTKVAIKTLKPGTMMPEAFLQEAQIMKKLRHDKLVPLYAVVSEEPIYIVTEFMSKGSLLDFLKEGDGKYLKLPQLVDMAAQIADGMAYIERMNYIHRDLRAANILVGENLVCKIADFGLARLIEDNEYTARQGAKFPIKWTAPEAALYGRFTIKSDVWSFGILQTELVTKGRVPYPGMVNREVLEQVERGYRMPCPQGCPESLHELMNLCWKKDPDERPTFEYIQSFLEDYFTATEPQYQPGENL

[6] = target: each individual kinase of the panel (Homo sapiens, UniProt P08069)
Chain of each individual kinase of the panel (Homo sapiens, UniProt P08069) (P08069 31-736 limits assumed): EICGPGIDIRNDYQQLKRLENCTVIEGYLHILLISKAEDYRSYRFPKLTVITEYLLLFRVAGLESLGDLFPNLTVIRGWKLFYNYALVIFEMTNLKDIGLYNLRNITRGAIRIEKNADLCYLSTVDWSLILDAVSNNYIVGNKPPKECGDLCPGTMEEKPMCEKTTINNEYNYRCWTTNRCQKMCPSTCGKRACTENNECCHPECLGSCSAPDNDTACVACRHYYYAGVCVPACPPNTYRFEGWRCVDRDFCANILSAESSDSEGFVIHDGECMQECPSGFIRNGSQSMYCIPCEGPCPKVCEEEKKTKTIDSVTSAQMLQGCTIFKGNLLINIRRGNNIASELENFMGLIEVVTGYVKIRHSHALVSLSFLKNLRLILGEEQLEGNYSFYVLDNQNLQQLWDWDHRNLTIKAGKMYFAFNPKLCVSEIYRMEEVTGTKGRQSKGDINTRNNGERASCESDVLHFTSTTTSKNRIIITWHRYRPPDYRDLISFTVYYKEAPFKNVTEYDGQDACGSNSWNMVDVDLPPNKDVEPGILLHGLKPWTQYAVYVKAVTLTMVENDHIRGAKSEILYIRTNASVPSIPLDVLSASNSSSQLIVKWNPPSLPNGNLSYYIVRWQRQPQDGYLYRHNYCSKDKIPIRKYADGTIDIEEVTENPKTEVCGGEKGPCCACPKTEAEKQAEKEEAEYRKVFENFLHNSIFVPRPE
Chain of each individual kinase of the panel (Homo sapiens, UniProt P08069) (P08069 741-1367 limits assumed): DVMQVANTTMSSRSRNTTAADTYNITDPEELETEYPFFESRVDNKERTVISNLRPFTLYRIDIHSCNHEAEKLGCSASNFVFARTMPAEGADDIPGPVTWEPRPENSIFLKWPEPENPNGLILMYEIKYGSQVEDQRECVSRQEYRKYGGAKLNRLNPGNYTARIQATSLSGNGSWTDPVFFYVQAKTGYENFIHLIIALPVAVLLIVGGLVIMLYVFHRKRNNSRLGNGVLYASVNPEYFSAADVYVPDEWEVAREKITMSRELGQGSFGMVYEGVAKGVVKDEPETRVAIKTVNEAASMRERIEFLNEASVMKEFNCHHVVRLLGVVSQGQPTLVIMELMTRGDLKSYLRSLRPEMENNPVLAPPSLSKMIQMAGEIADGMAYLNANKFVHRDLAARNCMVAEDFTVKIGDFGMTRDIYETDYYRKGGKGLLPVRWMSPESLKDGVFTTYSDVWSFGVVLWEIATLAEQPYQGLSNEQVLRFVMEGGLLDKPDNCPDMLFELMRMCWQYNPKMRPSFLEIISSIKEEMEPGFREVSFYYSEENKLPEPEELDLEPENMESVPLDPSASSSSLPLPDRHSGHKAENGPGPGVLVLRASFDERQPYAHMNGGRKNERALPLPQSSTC

[7] = target: each individual kinase of the panel (Homo sapiens, UniProt P09619)
[8] = target: each individual kinase of the panel (Homo sapiens, UniProt P11362)
Chain of each individual kinase of the panel (Homo sapiens, UniProt P11362) (P11362 22-822 limits assumed): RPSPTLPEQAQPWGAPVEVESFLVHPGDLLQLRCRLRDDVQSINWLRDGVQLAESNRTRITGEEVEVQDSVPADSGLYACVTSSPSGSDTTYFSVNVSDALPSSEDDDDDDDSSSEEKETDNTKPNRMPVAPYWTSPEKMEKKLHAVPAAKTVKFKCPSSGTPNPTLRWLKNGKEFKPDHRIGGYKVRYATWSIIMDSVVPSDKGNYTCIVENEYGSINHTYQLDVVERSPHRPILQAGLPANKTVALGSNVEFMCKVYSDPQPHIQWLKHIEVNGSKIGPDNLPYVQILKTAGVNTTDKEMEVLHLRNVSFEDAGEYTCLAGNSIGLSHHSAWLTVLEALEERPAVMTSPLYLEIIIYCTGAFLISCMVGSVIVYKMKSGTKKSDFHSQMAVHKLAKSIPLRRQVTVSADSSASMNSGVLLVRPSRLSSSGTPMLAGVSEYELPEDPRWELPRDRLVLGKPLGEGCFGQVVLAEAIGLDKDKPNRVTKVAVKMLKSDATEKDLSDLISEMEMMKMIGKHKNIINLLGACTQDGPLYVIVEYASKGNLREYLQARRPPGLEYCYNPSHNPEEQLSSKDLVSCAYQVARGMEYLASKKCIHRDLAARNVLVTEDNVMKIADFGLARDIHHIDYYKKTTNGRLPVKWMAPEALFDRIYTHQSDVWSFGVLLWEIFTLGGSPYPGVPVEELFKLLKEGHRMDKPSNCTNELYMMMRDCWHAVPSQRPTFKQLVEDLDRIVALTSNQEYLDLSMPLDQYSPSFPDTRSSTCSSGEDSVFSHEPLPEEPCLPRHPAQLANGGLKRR

[9] = target: each individual kinase of the panel (Homo sapiens, UniProt P16234)
[10] = target: each individual kinase of the panel (Homo sapiens, UniProt P16234, D842V)
[11] = target: each individual kinase of the panel (Homo sapiens, UniProt P21802)
Chain of each individual kinase of the panel (Homo sapiens, UniProt P21802) (P21802 22-821 limits assumed): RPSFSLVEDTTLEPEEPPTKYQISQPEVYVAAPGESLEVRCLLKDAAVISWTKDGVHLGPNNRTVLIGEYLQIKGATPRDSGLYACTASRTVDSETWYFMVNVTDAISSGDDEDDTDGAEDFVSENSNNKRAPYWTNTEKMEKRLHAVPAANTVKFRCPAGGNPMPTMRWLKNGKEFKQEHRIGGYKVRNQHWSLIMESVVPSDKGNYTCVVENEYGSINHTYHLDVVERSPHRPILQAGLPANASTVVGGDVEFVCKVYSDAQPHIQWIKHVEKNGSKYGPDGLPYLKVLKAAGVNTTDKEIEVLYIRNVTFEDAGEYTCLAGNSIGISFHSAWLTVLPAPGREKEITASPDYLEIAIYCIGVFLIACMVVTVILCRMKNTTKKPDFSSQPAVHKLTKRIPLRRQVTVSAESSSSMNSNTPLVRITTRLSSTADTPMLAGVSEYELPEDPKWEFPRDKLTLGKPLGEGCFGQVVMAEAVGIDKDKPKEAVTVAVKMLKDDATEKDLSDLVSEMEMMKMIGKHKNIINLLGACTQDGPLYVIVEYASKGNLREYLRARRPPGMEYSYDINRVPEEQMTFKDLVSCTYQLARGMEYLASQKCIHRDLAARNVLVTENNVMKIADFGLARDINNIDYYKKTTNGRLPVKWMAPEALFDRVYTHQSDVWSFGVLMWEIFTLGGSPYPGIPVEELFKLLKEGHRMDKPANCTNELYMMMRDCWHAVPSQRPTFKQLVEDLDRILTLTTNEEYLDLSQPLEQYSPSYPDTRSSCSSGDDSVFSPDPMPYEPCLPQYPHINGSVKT

[12] = target: each individual kinase of the panel (Homo sapiens, UniProt P31749)
[13] = target: each individual kinase of the panel (Homo sapiens, UniProt P42345)
[14] = target: each individual kinase of the panel (Homo sapiens, UniProt P50750)
[15] = target: each individual kinase of the panel (Homo sapiens, UniProt P54756)
[16] = target: each individual kinase of the panel (Homo sapiens, UniProt Q04759)
[17] = target: each individual kinase of the panel (Homo sapiens, UniProt Q04912)
[18] = target: each individual kinase of the panel (Homo sapiens, UniProt Q05397)
Chain of each individual kinase of the panel (Homo sapiens, UniProt Q05397) (Q05397 2-1052 limits assumed): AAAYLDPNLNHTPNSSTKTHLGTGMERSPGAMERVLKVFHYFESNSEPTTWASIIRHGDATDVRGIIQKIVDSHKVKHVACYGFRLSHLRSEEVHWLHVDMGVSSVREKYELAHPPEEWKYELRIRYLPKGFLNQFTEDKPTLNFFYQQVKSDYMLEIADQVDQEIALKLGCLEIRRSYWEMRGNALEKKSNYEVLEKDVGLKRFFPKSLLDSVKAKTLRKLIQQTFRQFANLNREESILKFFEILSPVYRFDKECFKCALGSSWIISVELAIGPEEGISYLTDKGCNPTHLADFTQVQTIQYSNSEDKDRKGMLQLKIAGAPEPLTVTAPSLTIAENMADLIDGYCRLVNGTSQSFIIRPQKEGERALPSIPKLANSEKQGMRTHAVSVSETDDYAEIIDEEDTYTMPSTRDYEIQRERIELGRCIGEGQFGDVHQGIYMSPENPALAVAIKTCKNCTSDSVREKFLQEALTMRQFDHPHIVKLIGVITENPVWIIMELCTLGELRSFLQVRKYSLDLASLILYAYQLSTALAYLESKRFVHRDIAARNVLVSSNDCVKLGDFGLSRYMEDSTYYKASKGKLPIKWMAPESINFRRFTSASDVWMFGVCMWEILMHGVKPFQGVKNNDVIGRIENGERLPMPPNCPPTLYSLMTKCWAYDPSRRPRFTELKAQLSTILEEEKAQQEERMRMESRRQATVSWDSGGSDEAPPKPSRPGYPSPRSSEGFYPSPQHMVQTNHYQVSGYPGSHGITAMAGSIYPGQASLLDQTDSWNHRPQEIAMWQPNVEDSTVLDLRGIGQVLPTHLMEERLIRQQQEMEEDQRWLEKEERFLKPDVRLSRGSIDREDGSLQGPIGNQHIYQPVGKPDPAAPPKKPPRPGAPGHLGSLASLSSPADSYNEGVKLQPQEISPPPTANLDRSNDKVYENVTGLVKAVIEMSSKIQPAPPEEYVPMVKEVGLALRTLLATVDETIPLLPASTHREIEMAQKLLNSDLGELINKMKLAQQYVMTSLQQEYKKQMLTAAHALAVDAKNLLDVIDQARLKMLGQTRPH

[19] = target: each individual kinase of the panel (Homo sapiens, UniProt Q12866)
[20] = target: each individual kinase of the panel (Homo sapiens, UniProt Q13976)
[21] = target: each individual kinase of the panel (Homo sapiens, UniProt Q14680)
[22] = target: each individual kinase of the panel (Homo sapiens, UniProt Q15375)
[23] = target: each individual kinase of the panel (Homo sapiens, UniProt Q16832)
[24] = target: each individual kinase of the panel (Homo sapiens, UniProt Q8IW41)
[25] = target: each individual kinase of the panel (Homo sapiens, UniProt Q9H422)
[26] = target: each individual kinase of the panel (Homo sapiens, UniProt Q9NYY3)
[27] = target: each individual kinase of the panel (Homo sapiens, UniProt Q9UEE5)
[28] = target: each individual kinase of the panel (Homo sapiens, UniProt P06239)
Chain of each individual kinase of the panel (Homo sapiens, UniProt P06239) (P06239 2-509 limits assumed): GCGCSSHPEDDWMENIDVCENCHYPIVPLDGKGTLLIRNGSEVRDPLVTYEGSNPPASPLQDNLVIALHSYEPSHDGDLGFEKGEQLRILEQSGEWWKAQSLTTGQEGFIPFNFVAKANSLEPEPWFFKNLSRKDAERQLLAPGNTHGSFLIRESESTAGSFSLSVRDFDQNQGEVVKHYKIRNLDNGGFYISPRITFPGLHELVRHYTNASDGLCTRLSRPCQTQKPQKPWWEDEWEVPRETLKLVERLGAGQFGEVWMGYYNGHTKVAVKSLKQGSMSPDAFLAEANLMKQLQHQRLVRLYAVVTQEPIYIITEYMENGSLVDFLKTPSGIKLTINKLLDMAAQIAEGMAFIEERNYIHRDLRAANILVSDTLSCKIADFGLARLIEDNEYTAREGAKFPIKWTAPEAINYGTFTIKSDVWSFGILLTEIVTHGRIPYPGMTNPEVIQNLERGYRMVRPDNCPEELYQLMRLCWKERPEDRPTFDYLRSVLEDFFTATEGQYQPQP

[29] = target: each individual kinase of the panel (Homo sapiens, UniProt P68400)

Compound: C#Cc1cccc(Nc2nc3cc(C(=O)O)ccc3c3cncnc23)c1 [drawing 1135]
- eEF−2K(h) percentage of activity [1]: −6%
- IKK alpha percentage of activity [2]: −1%
- EGFR percentage of activity [3]: −23%
- CDK1/cyclinB percentage of activity [4]: 48%
- YES percentage of activity [5]: −9%
- IGF1R percentage of activity [6]: 27%
- PDGFRB percentage of activity [7]: −10%
- FGFR1 percentage of activity [8]: −3%
- PDGFRA percentage of activity [9]: −9%
- PDGFRA (D842V) percentage of activity [10]: −9%
- FGFR2 percentage of activity [11]: −7%
- AKT1 percentage of activity [12]: −4%
- mTOR percentage of activity [13]: 15%
- CDK9/cyclin T1 percentage of activity [14]: 0%
- EPHA5 percentage of activity [15]: −25%
- PRKCT percentage of activity [16]: −11%
- RON percentage of activity [17]: −6%
- FAK percentage of activity [18]: 3%
- MER percentage of activity [19]: 54%
- PRKG1 percentage of activity [20]: −5%
- MELK percentage of activity [21]: 51%
- EPHA7 percentage of activity [22]: 1%
- DDR2 percentage of activity [23]: −9%
- MAPKAPK5 percentage of activity [24]: 7%
- HIPK3 percentage of activity [25]: 90%
- PLK2 percentage of activity [26]: −17%
- DRAK1 percentage of activity [27]: 38%

Compound: NC(=O)c1ccc2c(c1)nc(Nc1cccc(Cl)c1)c1ccncc12 [drawing 1138]
- eEF−2K(h) percentage of activity [1]: −3%
- IKK alpha percentage of activity [2]: −13%
- EGFR percentage of activity [3]: 15%
- LCK percentage of activity [28]: 79%
- CDK1/cyclinB percentage of activity [4]: 63%
- YES percentage of activity [5]: 30%
- IGF1R percentage of activity [6]: −23%
- PDGFRB percentage of activity [7]: 3%
- FGFR1 percentage of activity [8]: 17%
- PDGFRA percentage of activity [9]: 5%
- PDGFRA (D842V) percentage of activity [10]: 64%
- FGFR2 percentage of activity [11]: 9%
- AKT1 percentage of activity [12]: 7%
- CDK9/cyclin T1 percentage of activity [14]: 45%
- EPHA5 percentage of activity [15]: 8%
- CK2 alpha 1 percentage of activity [29]: 84%
- PRKCT percentage of activity [16]: 1%
- RON percentage of activity [17]: −3%
- FAK percentage of activity [18]: 4%
- MER percentage of activity [19]: 62%
- PRKG1 percentage of activity [20]: 4%
- MELK percentage of activity [21]: 73%
- EPHA7 percentage of activity [22]: 0%
- DDR2 percentage of activity [23]: 5%
- MAPKAPK5 percentage of activity [24]: 22%
- HIPK3 percentage of activity [25]: 57%
- PLK2 percentage of activity [26]: 9%
- DRAK1 percentage of activity [27]: −5%

Compound: NC(=O)c1cccc2c1nc(Nc1cccc(Cl)c1)c1ccncc12 [B]
- % Activity ([1]; eEF-2K(h)): 93%
- % Activity ([2]; IKKα(h)): 99%
- % Activity ([3]; EGFR(h)): 101%
- % Activity ([28]; Lck(h)): 24%
- % Activity ([4]; CDK1/cyclinB(h)): 18%
- % Activity ([5]; Yes(h)): 44%
- % Activity ([6]; IGF-1R(h)): 90%
- % Activity ([7]; PDGFRβ(h)): 94%
- % Activity ([8]; FGFR1(h)): 93%
- % Activity ([9]; PDGFRα(h)): 105%
- % Activity ([10]; PDGFRα(D842V)(h)): 15%
- % Activity ([11]; FGFR2(h)): 94%
- % Activity ([12]; PKBα(h)): 90%
- % Activity ([13]; mTOR(h)): 101%
- % Activity ([14]; CDK9/cyclin T1 (h)): 18%
- % Activity ([15]; EphA5(h)): 93%
- % Activity ([29]; CK2(h)): 48%
- % Activity ([16]; PKCθ(h)): 83%
- % Activity ([17]; Ron(h)): 95%
- % Activity ([18]; FAK(h)): 106%
- % Activity ([19]; Mer(h)): 39%
- % Activity ([20]; PKG1α(h)): 34%
- % Activity ([21]; MELK(h)): 14%
- % Activity ([22]; EphA7(h)): 90%
- % Activity ([24]; PRAK(h)): 84%
- % Activity ([25]; HIPK3(h)): −1%
- % Activity ([26]; Snk(h)): 82%
- % Activity ([27]; DRAK1(h)): 15%

Compound: C#Cc1cccc(Nc2nc3cc(C(=O)O)ccc3c3cnccc23)c1 [drawing 1137]
- eEF−2K(h) percentage of activity [1]: −8%
- IKK alpha percentage of activity [2]: 3%
- EGFR percentage of activity [3]: 24%
- LCK percentage of activity [28]: 33%
- CDK1/cyclinB percentage of activity [4]: 84%
- YES percentage of activity [5]: 34%
- IGF1R percentage of activity [6]: −9%
- PDGFRB percentage of activity [7]: −2%
- FGFR1 percentage of activity [8]: 23%
- PDGFRA percentage of activity [9]: −2%
- PDGFRA (D842V) percentage of activity [10]: 78%
- FGFR2 percentage of activity [11]: 11%
- AKT1 percentage of activity [12]: 7%
- CDK9/cyclin T1 percentage of activity [14]: 27%
- EPHA5 percentage of activity [15]: 12%
- PRKCT percentage of activity [16]: 10%
- RON percentage of activity [17]: 9%
- FAK percentage of activity [18]: −2%
- MER percentage of activity [19]: 86%
- PRKG1 percentage of activity [20]: −4%
- MELK percentage of activity [21]: 77%
- EPHA7 percentage of activity [22]: 5%
- DDR2 percentage of activity [23]: 12%
- MAPKAPK5 percentage of activity [24]: 22%
- HIPK3 percentage of activity [25]: 91%
- PLK2 percentage of activity [26]: 30%
- DRAK1 percentage of activity [27]: 65%
